According to ChEMBL document CHEMBL4507329, “Data for DCP probe BTZO-1” (2021):

Experiments:
[1] = target: Receptor tyrosine-protein kinase erbB-4 (Homo sapiens) (UniProt Q15303); conditions: Compound concentration 1000.0 nM
[2] = target: Cyclin-dependent kinase 2 (Homo sapiens) (UniProt P24941); conditions: Compound concentration 1000.0 nM
[3] = target: Dual specificity mitogen-activated protein kinase kinase 4 (Homo sapiens) (UniProt P45985); conditions: Compound concentration 1000.0 nM
[4] = test system: Phosphatidylinositol 4,5-bisphosphate 3-kinase catalytic subunit alpha isoform (Homo sapiens), P42336 [H1047L]; conditions: Compound concentration 1000.0 nM
Sequence of Phosphatidylinositol 4,5-bisphosphate 3-kinase catalytic subunit alpha isoform (Homo sapiens), P42336 [H1047L] (P42336 whole entry H1047L, canonical isoform): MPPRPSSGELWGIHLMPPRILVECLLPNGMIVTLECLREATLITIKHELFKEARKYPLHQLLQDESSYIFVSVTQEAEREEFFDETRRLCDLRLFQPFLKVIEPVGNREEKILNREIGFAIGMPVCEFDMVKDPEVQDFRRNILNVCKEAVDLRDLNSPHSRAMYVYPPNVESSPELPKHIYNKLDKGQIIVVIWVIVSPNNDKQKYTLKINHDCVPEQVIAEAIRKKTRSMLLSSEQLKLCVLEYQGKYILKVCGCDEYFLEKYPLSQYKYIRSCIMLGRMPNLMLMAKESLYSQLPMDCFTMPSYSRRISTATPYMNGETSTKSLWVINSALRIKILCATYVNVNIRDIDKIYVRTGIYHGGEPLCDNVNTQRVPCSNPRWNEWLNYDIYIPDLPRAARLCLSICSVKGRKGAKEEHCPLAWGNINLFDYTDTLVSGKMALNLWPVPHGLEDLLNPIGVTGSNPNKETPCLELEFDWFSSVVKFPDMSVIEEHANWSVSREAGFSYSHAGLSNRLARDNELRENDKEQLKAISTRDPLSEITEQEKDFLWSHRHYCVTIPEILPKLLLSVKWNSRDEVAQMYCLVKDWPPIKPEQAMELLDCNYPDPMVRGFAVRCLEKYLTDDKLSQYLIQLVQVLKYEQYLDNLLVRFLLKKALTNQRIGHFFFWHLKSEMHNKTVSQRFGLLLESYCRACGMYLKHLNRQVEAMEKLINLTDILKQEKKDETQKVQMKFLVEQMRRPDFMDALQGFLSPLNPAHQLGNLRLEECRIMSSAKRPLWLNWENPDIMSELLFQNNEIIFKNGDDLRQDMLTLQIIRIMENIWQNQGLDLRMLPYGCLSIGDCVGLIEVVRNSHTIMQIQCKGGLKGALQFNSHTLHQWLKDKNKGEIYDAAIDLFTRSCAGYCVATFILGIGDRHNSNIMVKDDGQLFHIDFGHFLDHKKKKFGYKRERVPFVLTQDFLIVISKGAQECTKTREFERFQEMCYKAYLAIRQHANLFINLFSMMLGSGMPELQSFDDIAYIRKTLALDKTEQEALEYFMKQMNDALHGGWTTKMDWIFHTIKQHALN

[5] = target: Wee1-like protein kinase (Homo sapiens) (UniProt P30291); conditions: Compound concentration 1000.0 nM
[6] = test system: Tyrosine-protein kinase ABL1 (Homo sapiens), P00519 [Y253F]; conditions: Compound concentration 1000.0 nM
[7] = target: Tyrosine-protein kinase ABL1 (Homo sapiens) (UniProt P00519); conditions: Compound concentration 1000.0 nM
[8] = target: Serine/threonine-protein kinase Chk2 (Homo sapiens) (UniProt O96017); conditions: Compound concentration 1000.0 nM
[9] = target: BDNF/NT-3 growth factors receptor (Homo sapiens) (UniProt Q16620); conditions: Compound concentration 1000.0 nM
[10] = target: Cyclin-dependent kinase 9 (Homo sapiens) (UniProt P50750); conditions: Compound concentration 1000.0 nM
[11] = test system: Mast/stem cell growth factor receptor Kit (Homo sapiens), P10721 [A829P]; conditions: Compound concentration 1000.0 nM
[12] = target: Cyclin-dependent kinase 4 (Homo sapiens) (UniProt P11802); conditions: Compound concentration 1000.0 nM
[13] = target: Serine/threonine-protein kinase mTOR (Homo sapiens) (UniProt P42345); conditions: Compound concentration 1000.0 nM
[14] = target: Tyrosine-protein kinase Tec (Homo sapiens) (UniProt P42680); conditions: Compound concentration 1000.0 nM
[15] = test system: Tyrosine-protein kinase ABL1 (Homo sapiens), P00519 [T315I]; conditions: Compound concentration 1000.0 nM
[16] = target: Serine/threonine-protein kinase Nek4 (Homo sapiens) (UniProt P51957); conditions: Compound concentration 1000.0 nM
[17] = target: 5'-AMP-activated protein kinase catalytic subunit alpha-2 (Homo sapiens) (UniProt P54646); conditions: Compound concentration 1000.0 nM
[18] = target: Receptor-interacting serine/threonine-protein kinase 2 (Homo sapiens) (UniProt O43353); conditions: Compound concentration 1000.0 nM
Sequence of Receptor-interacting serine/threonine-protein kinase 2 (Homo sapiens) (O43353 whole entry): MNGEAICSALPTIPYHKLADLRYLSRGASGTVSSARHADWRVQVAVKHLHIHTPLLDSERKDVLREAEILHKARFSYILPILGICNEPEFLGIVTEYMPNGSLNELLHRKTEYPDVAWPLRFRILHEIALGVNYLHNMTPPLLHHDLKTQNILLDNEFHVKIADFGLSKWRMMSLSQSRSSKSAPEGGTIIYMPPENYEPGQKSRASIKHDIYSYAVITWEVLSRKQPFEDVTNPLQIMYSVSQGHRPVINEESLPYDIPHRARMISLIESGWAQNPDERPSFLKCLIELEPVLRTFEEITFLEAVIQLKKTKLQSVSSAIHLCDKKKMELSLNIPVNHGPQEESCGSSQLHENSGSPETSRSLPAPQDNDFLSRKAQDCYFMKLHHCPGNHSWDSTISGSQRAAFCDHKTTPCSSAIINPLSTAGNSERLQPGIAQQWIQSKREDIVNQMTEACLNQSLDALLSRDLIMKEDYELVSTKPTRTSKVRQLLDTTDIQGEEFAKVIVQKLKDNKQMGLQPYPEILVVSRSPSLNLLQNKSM

[19] = target: Tyrosine-protein kinase JAK2 (Homo sapiens) (UniProt O60674); conditions: Compound concentration 1000.0 nM
[20] = target: Mitogen-activated protein kinase 1 (Homo sapiens) (UniProt P28482); conditions: Compound concentration 1000.0 nM
[21] = target: Serine/threonine-protein kinase OSR1 (Homo sapiens) (UniProt O95747); conditions: Compound concentration 1000.0 nM
[22] = target: Dual specificity protein kinase CLK1 (Homo sapiens) (UniProt P49759); conditions: Compound concentration 1000.0 nM
[23] = target: Proto-oncogene tyrosine-protein kinase ROS (Homo sapiens) (UniProt P08922); conditions: Compound concentration 1000.0 nM
[24] = target: Serine/threonine-protein kinase LATS1 (Homo sapiens) (UniProt O95835); conditions: Compound concentration 1000.0 nM
Sequence of Serine/threonine-protein kinase LATS1 (Homo sapiens) (O95835 whole entry): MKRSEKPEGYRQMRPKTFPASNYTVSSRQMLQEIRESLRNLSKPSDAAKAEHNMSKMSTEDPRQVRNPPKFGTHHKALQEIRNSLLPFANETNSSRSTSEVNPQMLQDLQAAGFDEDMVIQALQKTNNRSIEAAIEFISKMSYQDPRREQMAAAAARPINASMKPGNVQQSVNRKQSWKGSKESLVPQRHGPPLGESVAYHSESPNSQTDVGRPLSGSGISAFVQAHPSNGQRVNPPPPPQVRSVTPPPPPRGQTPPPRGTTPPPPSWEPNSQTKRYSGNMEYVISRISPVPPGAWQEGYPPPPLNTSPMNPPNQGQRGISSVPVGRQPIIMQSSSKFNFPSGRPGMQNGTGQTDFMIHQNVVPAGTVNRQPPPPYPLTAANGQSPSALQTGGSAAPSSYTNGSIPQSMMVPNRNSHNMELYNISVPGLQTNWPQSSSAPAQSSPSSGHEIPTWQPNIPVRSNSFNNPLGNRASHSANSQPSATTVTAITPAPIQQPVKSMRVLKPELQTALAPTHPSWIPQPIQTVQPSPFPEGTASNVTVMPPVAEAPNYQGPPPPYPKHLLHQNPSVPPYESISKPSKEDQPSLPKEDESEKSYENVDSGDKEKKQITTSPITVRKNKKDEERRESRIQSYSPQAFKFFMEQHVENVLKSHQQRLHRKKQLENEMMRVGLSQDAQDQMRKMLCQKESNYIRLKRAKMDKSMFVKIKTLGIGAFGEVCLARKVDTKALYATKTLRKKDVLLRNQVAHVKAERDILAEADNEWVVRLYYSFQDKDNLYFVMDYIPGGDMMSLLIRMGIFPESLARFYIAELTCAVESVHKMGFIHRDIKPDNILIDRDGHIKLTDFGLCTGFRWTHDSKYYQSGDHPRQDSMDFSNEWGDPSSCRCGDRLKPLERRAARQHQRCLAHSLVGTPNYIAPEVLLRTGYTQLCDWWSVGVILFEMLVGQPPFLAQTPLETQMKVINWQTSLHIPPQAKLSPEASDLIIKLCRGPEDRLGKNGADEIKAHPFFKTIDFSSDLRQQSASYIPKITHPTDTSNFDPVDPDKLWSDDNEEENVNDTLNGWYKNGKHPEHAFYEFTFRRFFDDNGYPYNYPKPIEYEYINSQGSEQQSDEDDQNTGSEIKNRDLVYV

[25] = target: Proto-oncogene tyrosine-protein kinase receptor Ret (Homo sapiens) (UniProt P07949); conditions: Compound concentration 1000.0 nM
[26] = target: Fibroblast growth factor receptor 2 (Homo sapiens) (UniProt P21802); conditions: Compound concentration 1000.0 nM
Sequence of Fibroblast growth factor receptor 2 (Homo sapiens) (P21802 22-821 limits assumed): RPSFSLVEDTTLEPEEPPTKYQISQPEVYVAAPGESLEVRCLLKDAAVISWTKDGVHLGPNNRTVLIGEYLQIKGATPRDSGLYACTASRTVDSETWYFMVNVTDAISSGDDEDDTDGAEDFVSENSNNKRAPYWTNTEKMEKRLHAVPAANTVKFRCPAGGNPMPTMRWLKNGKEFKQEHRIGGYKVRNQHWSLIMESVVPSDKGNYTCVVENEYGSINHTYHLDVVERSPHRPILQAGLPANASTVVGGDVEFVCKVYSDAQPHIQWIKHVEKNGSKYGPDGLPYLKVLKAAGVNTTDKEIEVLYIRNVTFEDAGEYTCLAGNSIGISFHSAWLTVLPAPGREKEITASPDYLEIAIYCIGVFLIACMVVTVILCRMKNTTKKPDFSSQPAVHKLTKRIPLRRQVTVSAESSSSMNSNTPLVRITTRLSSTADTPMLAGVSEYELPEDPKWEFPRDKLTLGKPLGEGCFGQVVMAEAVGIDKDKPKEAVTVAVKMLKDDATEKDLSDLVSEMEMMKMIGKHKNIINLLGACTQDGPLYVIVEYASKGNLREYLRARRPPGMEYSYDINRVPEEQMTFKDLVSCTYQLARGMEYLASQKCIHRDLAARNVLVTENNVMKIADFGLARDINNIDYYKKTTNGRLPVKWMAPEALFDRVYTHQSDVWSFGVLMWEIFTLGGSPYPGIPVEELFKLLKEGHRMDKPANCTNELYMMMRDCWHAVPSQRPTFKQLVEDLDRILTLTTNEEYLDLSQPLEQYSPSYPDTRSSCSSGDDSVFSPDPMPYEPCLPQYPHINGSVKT

[27] = target: Ribosomal protein S6 kinase alpha-1 (Homo sapiens) (UniProt Q15418); conditions: Compound concentration 1000.0 nM
[28] = target: Receptor tyrosine-protein kinase erbB-3 (Homo sapiens) (UniProt P21860); conditions: Compound concentration 1000.0 nM
[29] = target: Serine/threonine-protein kinase NIM1 (Homo sapiens) (UniProt Q8IY84); conditions: Compound concentration 1000.0 nM
[30] = target: Tyrosine-protein kinase ITK/TSK (Homo sapiens) (UniProt Q08881); conditions: Compound concentration 1000.0 nM
[31] = test system: Epidermal growth factor receptor (Homo sapiens), P00533 [L861Q]; conditions: Compound concentration 1000.0 nM
[32] = target: Tyrosine-protein kinase TXK (Homo sapiens) (UniProt P42681); conditions: Compound concentration 1000.0 nM
[33] = target: Calcium/calmodulin-dependent protein kinase type 1G (Homo sapiens) (UniProt Q96NX5); conditions: Compound concentration 1000.0 nM
Sequence of Calcium/calmodulin-dependent protein kinase type 1G (Homo sapiens) (Q96NX5 whole entry): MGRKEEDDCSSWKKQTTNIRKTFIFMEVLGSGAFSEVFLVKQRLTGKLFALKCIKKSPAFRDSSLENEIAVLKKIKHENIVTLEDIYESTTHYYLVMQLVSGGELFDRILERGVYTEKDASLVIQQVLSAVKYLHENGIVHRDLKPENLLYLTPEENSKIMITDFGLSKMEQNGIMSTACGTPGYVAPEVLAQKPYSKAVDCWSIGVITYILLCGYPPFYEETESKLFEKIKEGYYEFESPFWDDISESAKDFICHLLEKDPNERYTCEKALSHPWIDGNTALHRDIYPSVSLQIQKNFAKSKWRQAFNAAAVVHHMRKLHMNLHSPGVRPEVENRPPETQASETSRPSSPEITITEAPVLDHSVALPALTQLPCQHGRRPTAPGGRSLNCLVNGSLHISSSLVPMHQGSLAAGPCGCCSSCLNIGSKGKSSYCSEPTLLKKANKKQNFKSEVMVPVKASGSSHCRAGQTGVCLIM

[34] = test system: Epidermal growth factor receptor (Homo sapiens), P00533 [T790M]; conditions: Compound concentration 1000.0 nM
[35] = test system: Epidermal growth factor receptor (Homo sapiens), P00533 [UNDEFINED MUTATION]; conditions: Compound concentration 1000.0 nM
[36] = target: Serine/threonine-protein kinase BRSK2 (Homo sapiens) (UniProt Q8IWQ3); conditions: Compound concentration 1000.0 nM
[37] = target: Dual specificity mitogen-activated protein kinase kinase 7 (Homo sapiens) (UniProt O14733); conditions: Compound concentration 1000.0 nM
[38] = target: Death-associated protein kinase 2 (Homo sapiens) (UniProt Q9UIK4); conditions: Compound concentration 1000.0 nM
Sequence of Death-associated protein kinase 2 (Homo sapiens) (Q9UIK4 whole entry, looked up): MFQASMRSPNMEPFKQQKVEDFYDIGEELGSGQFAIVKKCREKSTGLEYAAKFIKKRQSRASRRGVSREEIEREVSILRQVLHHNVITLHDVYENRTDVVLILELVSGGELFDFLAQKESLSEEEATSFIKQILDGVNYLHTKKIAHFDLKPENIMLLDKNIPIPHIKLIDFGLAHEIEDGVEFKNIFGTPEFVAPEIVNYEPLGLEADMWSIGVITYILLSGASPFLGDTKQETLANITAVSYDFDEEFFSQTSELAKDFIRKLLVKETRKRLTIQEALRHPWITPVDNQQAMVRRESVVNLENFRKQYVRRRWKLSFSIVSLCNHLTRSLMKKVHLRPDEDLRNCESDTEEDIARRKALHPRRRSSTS

[39] = target: Serine/threonine-protein kinase 4 (Homo sapiens) (UniProt Q13043); conditions: Compound concentration 1000.0 nM
[40] = test system: Phosphatidylinositol 4,5-bisphosphate 3-kinase catalytic subunit alpha isoform (Homo sapiens), P42336 [E545K]; conditions: Compound concentration 1000.0 nM
Sequence of Phosphatidylinositol 4,5-bisphosphate 3-kinase catalytic subunit alpha isoform (Homo sapiens), P42336 [E545K] (P42336 whole entry E545K, canonical isoform): as the sequence (P42336 whole entry H1047L, canonical isoform) above, with E545K, L1047H counted along it

[41] = target: Muscarinic acetylcholine receptor M2 (Homo sapiens) (UniProt P08172); conditions: Compound concentration 10.0 uM
Sequence of Muscarinic acetylcholine receptor M2 (Homo sapiens) (P08172 whole entry): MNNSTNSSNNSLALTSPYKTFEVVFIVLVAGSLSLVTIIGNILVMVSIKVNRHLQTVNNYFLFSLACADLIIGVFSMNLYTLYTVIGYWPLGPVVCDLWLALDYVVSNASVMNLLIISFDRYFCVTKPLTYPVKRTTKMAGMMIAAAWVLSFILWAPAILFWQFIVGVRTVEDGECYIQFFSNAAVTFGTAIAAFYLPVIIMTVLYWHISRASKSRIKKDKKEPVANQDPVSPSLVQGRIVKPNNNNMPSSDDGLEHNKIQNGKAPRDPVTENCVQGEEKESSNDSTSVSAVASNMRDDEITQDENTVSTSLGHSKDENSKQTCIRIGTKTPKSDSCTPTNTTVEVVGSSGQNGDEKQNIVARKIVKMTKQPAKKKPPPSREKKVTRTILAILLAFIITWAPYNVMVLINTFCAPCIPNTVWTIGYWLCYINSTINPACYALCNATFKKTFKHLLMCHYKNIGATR

[42] = target: Ribosomal protein S6 kinase alpha-4 (Homo sapiens) (UniProt O75676); conditions: Compound concentration 1000.0 nM
[43] = test system: Receptor-type tyrosine-protein kinase FLT3 (Homo sapiens), P36888 [K663Q]; conditions: Compound concentration 1000.0 nM
[44] = target: Serine/threonine-protein kinase 36 (Homo sapiens) (UniProt Q9NRP7); conditions: Compound concentration 1000.0 nM
[45] = target: Bone morphogenetic protein receptor type-1B (Homo sapiens) (UniProt O00238); conditions: Compound concentration 1000.0 nM

O=c1nc(-c2ccccn2)sc2ccccc12 [BTZO-1]
inactive: residual activity [1] 96% | residual activity [2] 96% | residual activity [3] 100% | residual activity [4] 76% | residual activity [5] 100% | residual activity [6] 83% | residual activity [7] 89% | residual activity [8] 100% | residual activity [9] 96% | residual activity [10] 95% | residual activity [11] 100% | residual activity [12] 100% | residual activity [13] 100% | residual activity [14] 82% | residual activity [15] 100% | residual activity [16] 91% | residual activity [17] 100% | residual activity [18] 82% | residual activity [19] 100% | residual activity [20] 91% | residual activity [21] 100% | residual activity [22] 99% | residual activity [23] 100% | residual activity [24] 95% | residual activity [25] 89% | residual activity [26] 100% | residual activity [27] 100% | residual activity [28] 83% | residual activity [29] 100% | residual activity [30] 82% | residual activity [31] 68% | residual activity [32] 81% | residual activity [33] 100% | residual activity [34] 100% | residual activity [35] 100% | residual activity [36] 100% | residual activity [37] 93% | residual activity [38] 86% | residual activity [39] 75% | residual activity [40] 65% | inhibition [41] 5.17% | residual activity [42] 80% | residual activity [43] 100% | residual activity [44] 82% | residual activity [45] 75%

O=C1NC(c2ccccn2)Sc2ccccc21 (stereo not given) [BTZO-4]
inactive: residual activity [1] 77% | residual activity [2] 81% | residual activity [3] 93% | residual activity [4] 59% | residual activity [5] 100% | residual activity [6] 69% | residual activity [7] 72% | residual activity [8] 100% | residual activity [9] 87% | residual activity [10] 100% | residual activity [11] 98% | residual activity [12] 93% | residual activity [13] 100% | residual activity [14] 75% | residual activity [15] 100% | residual activity [16] 58% | residual activity [17] 100% | residual activity [18] 100% | residual activity [19] 84% | residual activity [20] 89% | residual activity [21] 100% | residual activity [22] 98% | residual activity [23] 95% | residual activity [24] 98% | residual activity [25] 88% | residual activity [26] 100% | residual activity [27] 100% | residual activity [28] 88% | residual activity [29] 100% | residual activity [30] 77% | residual activity [31] 77% | residual activity [32] 100% | residual activity [33] 100% | residual activity [34] 96% | residual activity [35] 100% | residual activity [36] 100% | residual activity [37] 87% | residual activity [38] 79% | residual activity [39] 81% | residual activity [40] 73% | inhibition [41] 13.7% | residual activity [42] 74% | residual activity [43] 82% | residual activity [44] 79% | residual activity [45] 71%
